Values after ≈ are worked out from the molar mass of the structure shown.
Assays:
Assay type in all cases: cell-based
[1] = test system: Candida albicans ATCC 10231; experiment: In vitro antifungal MIC, Candida albicans ATCC 10231; conditions: ATCC10231; Candida albicans ATCC 10231; 35°-37° C., 48 hours; read-out: MIC
Description: (§1) The in vitro antifungal activity of the compounds of the present invention against a variety of fungiwas determined as follow: Test medium was prepared by dissolving first 5 g of dextrose and then 6.7 g of Bacto Yeast Nitrogen Base® (commercially available from Difco Laboratories) in 100 mL of distilled water. The solution was filter-sterilized and diluted 1:10 with 0.01M pH 8.0 phosphate buffer solution, and the final pH of the medium adjusted to about pH 7.0 when necessary with either 0.1N hydrochloric acid solution of 0.1N sodium hydroxide solution. […] These concentrated stock solutions were diluted to a concentration of 200 μg/mL (twice the highest concentration desired for testing) with the test medium. Amphotericin B, similarly prepared, was used as a reference antifungal agent.
(§2) The test organisms were then inoculated into test tubes containing approximately 3 to 10 mL of test medium and the test tubes incubated overnight at 37° C. A sample of each overnight culture was placed in a test tube and diluted using the test medium until a reading of 95% transmittance was obtained in a conventional UV/visible spectrophotometer set to 560 nm. The adjusted cultures were then diluted 1:50 with test medium. These diluted cultures served as the inocula for the assays which follow and were used within 15 minutes of preparation.
(§3) Next, 2-fold serial dilutions of each test compound in test medium were prepared in a 96-well microtiter plate using calibrated microdiluters attached to an automatic (hand-held) diluter (available from Dynatech Laboratories).
(§4) Using sterile calibrated droppers or a multi-point dispenser, the diluted inoculum suspension was added to each of the wells in the plate. When inoculation was complete, the microtiter tray was covered with a plastic plate sealer to minimize evaporation. After the plate had been sealed, a hole was made above each well with a sterile 26-gauge syringe needle in order to allow gas exchange. If plate sealers were not available, the microtiter trays were stacked in groups of five or less with an empty tray on top. The microtiter trays were then incubated in a humidified chamber at 35°-37° C. for 48 hours or until growth was visible in the growth control wells.
(§5) The minimum inhibitory concentration (MIC) was defined as the lowest concentration of test compound yielding no growth, a slight haze or sparsely isolated colonies on the inoculum spot as compared to the growth control containing no test compound.

Candida albicans 579A = experiment: In vitro antifungal MIC, Candida albicans 579A; conditions: Candida albicans 579A; 35°-37° C., 48 hours; read-out: MIC
Description: as §1, §2, §3, §4, §5

Candida albicans CCH 442 = experiment: In vitro antifungal MIC, Candida albicans CCH 442; conditions: CCH442; Candida albicans CCH 442; 35°-37° C., 48 hours; read-out: MIC
Description: as §1, §2, §3, §4, §5

[2] = test system: Candida albicans ATCC 38247; experiment: In vitro antifungal MIC, Candida albicans ATCC 38247; conditions: ATCC38247; Candida albicans ATCC 38247; 35°-37° C., 48 hours; read-out: MIC
Description: as §1, §2, §3, §4, §5

[3] = test system: Candida albicans ATCC 62376; experiment: In vitro antifungal MIC, Candida albicans ATCC 62376; conditions: ATCC62376; Candida albicans ATCC 62376; 35°-37° C., 48 hours; read-out: MIC
Description: as §1, §2, §3, §4, §5

[4] = test system: Candida tropicalis NRRL-Y-112; experiment: In vitro antifungal MIC, Candida tropicalis NRRL-Y-112; conditions: NRRLY112; Candida tropicalis NRRL-Y-112; 35°-37° C., 48 hours; read-out: MIC
Description: as §1, §2, §3, §4, §5

Candida kefyr ATCC 28838 = experiment: In vitro antifungal MIC, Candida kefyr ATCC 28838; conditions: Kluyveromyces marxianus, ATCC28838; Candida kefyr ATCC 28838; 35°-37° C., 48 hours; read-out: MIC
Description: as §1, §2, §3, §4, §5

[5] = test system: Torulopsis glabrata ATCC 15545; experiment: In vitro antifungal MIC, Torulopsis glabrata ATCC 15545; conditions: Nakaseomyces glabratus, ATCC15545; Torulopsis glabrata ATCC 15545; 35°-37° C., 48 hours; read-out: MIC
Description: as §1, §2, §3, §4, §5

[6] = test system: Cryptococcus albidus ATCC 34140; experiment: In vitro antifungal MIC, Cryptococcus albidus ATCC 34140; conditions: Naganishia albida, ATCC34140; Cryptococcus albidus ATCC 34140; 35°-37° C., 48 hours; read-out: MIC
Description: as §1, §2, §3, §4, §5

[7] = test system: Aspergillus niger ATCC 16404; experiment: In vitro antifungal MIC, Aspergillus niger ATCC 16404; conditions: ATCC16404; Aspergillus niger ATCC 16404; 35°-37° C., 48 hours; read-out: MIC
Description: as §1, §2, §3, §4, §5

MIC [1] [µg/mL] | MIC (Candida albicans 579A) [µg/mL] | MIC (Candida albicans CCH 442) [µg/mL] | MIC [2] [µg/mL] | MIC [3] [µg/mL] | MIC [4] [µg/mL] | MIC (Candida kefyr ATCC 28838) [µg/mL] | MIC [5] [µg/mL] | MIC [6] [µg/mL] | MIC [7] [µg/mL] | SMILES
3.12 (≈ 11.1 µM) | 3.12 (≈ 11.1 µM) | 3.12 (≈ 11.1 µM) | 6.25 (≈ 22.2 µM) | 3.12 (≈ 11.1 µM) | 3.12 (≈ 11.1 µM) | 0.39 (≈ 1.39 µM) | 3.12 (≈ 11.1 µM) | 12.5 (≈ 44.4 µM) | 0.78 (≈ 2.77 µM) | [O-][S+]1c2ccccc2SN1C1CCCCCCC1 (stereo not drawn) [Example 28, 2-cyclooctyl-1,3,2-benzodithiazole-1-oxide]
6.25 (≈ 20.5 µM) | 12.5 (≈ 40.9 µM) | 25 (≈ 81.8 µM) | 50 (≈ 164 µM) | 6.25 (≈ 20.5 µM) | 12.5 (≈ 40.9 µM) | 3.12 (≈ 10.2 µM) | 12.5 (≈ 40.9 µM) | 25 (≈ 81.8 µM) | 3.12 (≈ 10.2 µM) | [O-][S+]1c2ccccc2SN1C1C2CC3CC(C2)CC1C3 (stereo not drawn) [Example 29, 2-(2-adamantyl)-1,3,2-benzodithiazole-1-oxide]
25 (≈ 101 µM) | 12.5 (≈ 50.5 µM) | 25 (≈ 101 µM) | 25 (≈ 101 µM) | 25 (≈ 101 µM) | 25 (≈ 101 µM) | 12.5 (≈ 50.5 µM) | 25 (≈ 101 µM) | 25 (≈ 101 µM) | 12.5 (≈ 50.5 µM) | [O-][S+]1c2ccccc2SN1c1ccccc1 (stereo not drawn) [Example 30, 2-phenyl-1,3,2-benzodithiazole-1-oxide]
12.5 (≈ 42.9 µM) | 25 (≈ 85.8 µM) | 25 (≈ 85.8 µM) | 25 (≈ 85.8 µM) | 25 (≈ 85.8 µM) | 50 (≈ 172 µM) | 12.5 (≈ 42.9 µM) | 12.5 (≈ 42.9 µM) | 50 (≈ 172 µM) | 12.5 (≈ 42.9 µM) | [O-][S+]1c2ccccc2SN1c1ccc2c(c1)OCO2 (stereo not drawn) [Example 31]
1.56 (≈ 5.83 µM) | 0.78 (≈ 2.92 µM) | 0.78 (≈ 2.92 µM) | 1.56 (≈ 5.83 µM) | 0.78 (≈ 2.92 µM) | 50 (≈ 187 µM) | 0.78 (≈ 2.92 µM) | 50 (≈ 187 µM) | 6.25 (≈ 23.4 µM) | 0.39 (≈ 1.46 µM) | [O-][S+]1c2ccccc2SN1Cc1cccs1 (stereo not drawn) [Example 34, 2-(2-thienyl)methyl-1,3,2-benzodithiazole-1-oxide]
0.78 (≈ 2.98 µM) | 0.78 (≈ 2.98 µM) | 0.78 (≈ 2.98 µM) | 6.25 (≈ 23.9 µM) | 0.78 (≈ 2.98 µM) | 1.56 (≈ 5.97 µM) | 0.39 (≈ 1.49 µM) | 1.56 (≈ 5.97 µM) | 6.25 (≈ 23.9 µM) | 0.39 (≈ 1.49 µM) | [O-][S+]1c2ccccc2SN1Cc1ccccc1 (stereo not drawn) [Example 35, 2-benzyl-1,3,2-benzodithiazole-1-oxide]
3.12 (≈ 9.45 µM) | 1.56 (≈ 4.72 µM) | 6.25 (≈ 18.9 µM) | 12.5 (≈ 37.8 µM) | 3.12 (≈ 9.45 µM) | 3.12 (≈ 9.45 µM) | 0.78 (≈ 2.36 µM) | 3.12 (≈ 9.45 µM) | 25 (≈ 75.7 µM) | 3.12 (≈ 9.45 µM) | [O-][S+]1c2ccccc2SN1Cc1ccc(Cl)cc1Cl (stereo not drawn) [Example 36, 2-(2,4-dichlorophenyl)methyl-1,3,2-benzodithiazole-1-oxide]
1.56 (≈ 5.12 µM) | 3.12 (≈ 10.2 µM) | 6.25 (≈ 20.5 µM) | 3.12 (≈ 10.2 µM) | 6.25 (≈ 20.5 µM) | 6.25 (≈ 20.5 µM) | 1.56 (≈ 5.12 µM) | 6.25 (≈ 20.5 µM) | 12.5 (≈ 41.1 µM) | 3.12 (≈ 10.2 µM) | CN(C)c1ccc(CN2Sc3ccccc3[S+]2[O-])cc1 (stereo not drawn) [Example 37, 2-(4-(dimethylamino)phenyl)methyl-1,3,2-benzodithiazole-1-oxide]
1.56 (≈ 5.39 µM) | 3.12 (≈ 10.8 µM) | 3.12 (≈ 10.8 µM) | 12.5 (≈ 43.2 µM) | 3.12 (≈ 10.8 µM) | 6.25 (≈ 21.6 µM) | 1.56 (≈ 5.39 µM) | 3.12 (≈ 10.8 µM) | 25 (≈ 86.4 µM) | 1.56 (≈ 5.39 µM) | [O-][S+]1c2ccccc2SN1CCCc1ccccc1 (stereo not drawn) [Example 39, 2-(3-phenylpropyl)-1,3,2-benzodithiazole-1-oxide]

Source: US5140018A, “1,3,2-benzodithiazole-1-oxide compounds” (Abbott Laboratories, priority 1991, dated 1992)
